From patent US20070110720A1, “Vectors, mutant viruses and methods for generating mutant viruses” (priority 2003, published 2007)
Entries after “also recorded” stand apart in the source; their conditions may differ.

Legend:
A2780 xenograft = assay: Scheduling experiment: tumour volume after virus and CB1954; format: in vivo, athymic nude mice
Description: Mice were randomized into treatment groups (treatment regimes shown in Table 2) of 3 animals when tumour diameters were approximately 5 mm (tumour volume […]).
(§1) The treatment groups were administered with a single direct intratumoural injection of the virus and dose determined for that group. The virus was diluted PBS+10% serum. ‘No virus’ control groups received an intratumoural injection of 100 μl of PBS+10% serum. This day was designated as Experimental Day 0.
(§2) Injections of CB1954 were given to the appropriate groups at days 2, 10 and 15. A dose of 80 mg/kg—the equivalent of approx. 2 mg per mouse—was given. The powdered form of the CB1954 drug (from Sigma) was dissolved in acetone to 10% of the final volume (10 μl per 2 mg). The volume was then made up to 2 mg CB1954 in 100 μl using peanut oil. A syringe was used to mix the drug as peanut oil is thick and viscous. The drug was made up fresh every time.
(§3) The appropriate groups were then injected intra-peritoneal with this solution. Control groups which were not receiving drug were injected intra-peritoneal with a 100 μl solution of 10% acetone in peanut oil.

[1] = Scheduling experiment: tolerability of injections; format: in vivo, athymic nude mice; settings: 80 mg/kg intra-peritoneal in 10% acetone/peanut oil
Description: as §1
Some tumours bleed slightly after injection but not to a great degree. […] In all the tumours that bleed slightly, the following day the healing process had begun and within 3-5 days there was little evidence of any puncture wound on any tumour.
as §2, §3

A2780 xenografts = assay: Naked DNA experiment: CMV-ntr plasmid and CB1954 in xenograft tumours; format: in vivo, mice; settings: single agent: CMV-ntr 0.2 mg DNA intratumoural Day 0, or CB1954 80 mg/kg intra-peritoneal Day 2
Description: In order to check the alterations in tumour growth are due to the virus itself and not a result of the CMV-ntr plasmid DNA that had been introduced to the HSV 1716 virus, an experiment was set up looking at the effect of the CMV-ntr plasmid DNA alone and in combination with the prodrug CB1954.
Mice were randomised into treatment groups of 6 animals each when tumour diameters are approximately 5 mm (this is Day 0). […] Two groups of mice were administered CMV-ntr plasmid by direct intratumoural injection at a dose of 0.2 mg DNA per injection. One of these groups was then administered with a single dose of 80 mg/kg of CB1954 on Day 2 by intra-peritoneal injection. […] Animals were weighed daily (FIG. 23) and daily caliper measurements performed until the tumour sizes were in the region of 20 mm by 20 mm. Tumour volumes were estimated from these measurements (volume=[…]) (FIG. 24). In addition any toxicity from these administered agents was determined.

confluent 3T6 cells = format: cell-based; settings: 50 μM CB1954 alone
C8161 cells = format: cell-based, human; settings: 50 μM CB1954 alone

NC(=O)c1cc(N2CC2)c([N+](=O)[O-])cc1[N+](=O)[O-] [CB1954]
effect on tumour growth (A2780 xenograft; CB1954 alone, 80 mg/kg intra-peritoneal, no virus (groups 5, 6, 7, 13)): little effect on tumour growth | tumour growth delay by timing of prodrug (A2780 xenograft; CB1954 given Day 2 post viral injection versus Day 10): tumour growth was not delayed as much as if the drug was given at a later date | body weight after intra-peritoneal injection [1]: did not lose any body weight | swelling or irritation at the site of injection [1]: No swelling or irritation | anti-tumour activity as determined by tumour regression (A2780 xenografts): neither the CMV-ntr alone, CB1954 alone or the combination of both CMV-ntr and CB1954, has any anti-tumour activity | cell death (confluent 3T6 cells): no effect; also recorded: does not result in any significant cell death | cell death (C8161 cells): no effect
